Where “and” joins values, the source holds several entries; their conditions need not be identical. Identical values can stand only once.
System: 292921-168-R-J2-PDC complex spheroid viability
Assay: Anticancer human tumor 292921-168-R-J2-PDC patient-derived pancreatic carcinoma cell line growth inhibition
Conditions: for viability, T/C: stronger effect = lower value
Procedure, shortened: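 Complex spheroids of tumor cells with HUVEC and human MSCs, exposed to iadademstat combined with other agents. Each agent tested in half-log steps from near clinical Cmax (else 10 microM top), DMSO ≤0.25%.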

[1] = curve of first compound, second compound 0.1 µM
[2] = curve of first compound, second compound 0.316 µM
[3] = curve of first compound, second compound 1 µM
[4] = curve of first compound, second compound 3.16 µM
[5] = curve of first compound, second compound 10 µM
[6] = second compound 0.1 µM, first compound 0.00316 µM
[7] = second compound 0.1 µM, first compound 0.01 µM
[8] = second compound 0.1 µM, first compound 0.0316 µM
[9] = second compound 0.1 µM, first compound 0.1 µM
[10] = second compound 0.1 µM, first compound 0.316 µM
[11] = second compound 0.1 µM, first compound 1 µM
[12] = second compound 0.316 µM, first compound 0.00316 µM
[13] = second compound 0.316 µM, first compound 0.01 µM
[14] = second compound 0.316 µM, first compound 0.0316 µM
[15] = second compound 0.316 µM, first compound 0.1 µM
[16] = second compound 0.316 µM, first compound 0.316 µM
[17] = second compound 0.316 µM, first compound 1 µM
[18] = second compound 1 µM, first compound 0.00316 µM
[19] = second compound 1 µM, first compound 0.01 µM
[20] = second compound 1 µM, first compound 0.0316 µM
[21] = second compound 1 µM, first compound 0.1 µM
[22] = second compound 1 µM, first compound 0.316 µM
[23] = second compound 1 µM, first compound 1 µM
[24] = second compound 3.16 µM, first compound 0.00316 µM
[25] = second compound 3.16 µM, first compound 0.01 µM
[26] = second compound 3.16 µM, first compound 0.0316 µM
[27] = second compound 3.16 µM, first compound 0.1 µM
[28] = second compound 3.16 µM, first compound 0.316 µM
[29] = second compound 3.16 µM, first compound 1 µM
[30] = second compound 10 µM, first compound 0.00316 µM
[31] = second compound 10 µM, first compound 0.01 µM
[32] = second compound 10 µM, first compound 0.0316 µM
[33] = second compound 10 µM, first compound 0.1 µM
[34] = second compound 10 µM, first compound 0.316 µM
[35] = second compound 10 µM, first compound 1 µM
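Also: seven day compound exposure before luminescent viability read.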
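For viability, T/C in this document: 100% = DMSO vehicle control wells.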

Row | SMILES | IC50 [1] | IC50 [2] | IC50 [3] | IC50 [4] | IC50 [5] | viability, T/C [6] | viability, T/C [7] | viability, T/C [8] | viability, T/C [9] | viability, T/C [12] | viability, T/C [13] | viability, T/C [14] | viability, T/C [15] | viability, T/C [18] | viability, T/C [19] | viability, T/C [20] | viability, T/C [21] | viability, T/C [24] | viability, T/C [25] | viability, T/C [26] | also measured
1 | O=C(C=Cn1cnc(-c2cc(C(F)(F)F)cc(C(F)(F)F)c2)n1)NNc1cnccn1 + NC1CC1c1ccc(-c2cccc(O)c2)cc1 | 0.00326 µM | 0.00341 µM | < 0.00316 µM | 0.00457 µM | 0.00376 µM | 48.3% | 49.7% | 26.2% | 12.7% | 50% | 45% | 22.3% | 11.1% | 47.8% | 42.7% | 23% | 11.8% | 51.8% | 46% | 24% | viability, T/C [10]: 7.08%; viability, T/C [11]: 6.49%; viability, T/C [16]: 7.37%; viability, T/C [17]: 6.26%; viability, T/C [22]: 6.36%; viability, T/C [23]: 6.66%; viability, T/C [27]: 14.4%; viability, T/C [28]: 7.81%; viability, T/C [29]: 7.38%; viability, T/C [30]: 50.7%; viability, T/C [31]: 46.3%; viability, T/C [32]: 33.5%; viability, T/C [33]: 17.6%; viability, T/C [34]: 9.43%; viability, T/C [35]: 8.53%
2 | O=C(c1cc(Cc2n[nH]c(=O)c3ccccc23)ccc1F)N1CCN(C(=O)C2CC2)CC1 |  |  |  |  |  |  |  |  |  |  |  |  |  |  |  |  |  |  |  |  | viability, T/C (compound 0.0316 µM): 106% and 100%; viability, T/C (compound 0.1 µM): 98.8% and 100%; viability, T/C (compound 0.316 µM): 98.5% and 99.6%; viability, T/C (compound 1 µM): 95.4% and 85.9%; viability, T/C (compound 3.16 µM): 74.9% and 73%; viability, T/C (compound 10 µM): 48.1% and 42.4%; IC50 (curve of compound): 9.28 µM and 7.49 µM
3 | Nc1ncn(C2CC(O)C(CO)O2)c(=O)n1 (centres undefined) + NC1CC1c1ccc(-c2cccc(O)c2)cc1 | 0.646 µM | 0.33 µM | 0.104 µM | 0.171 µM | 0.0908 µM | 79.1% | 76.2% | 71.9% | 66.9% | 74.7% | 75% | 65.2% | 60.4% | 64.8% | 52.3% | 53.4% | 53.2% | 65.2% | 63.5% | 61.4% | viability, T/C [10]: 55%; viability, T/C [11]: 46.5%; viability, T/C [16]: 49.6%; viability, T/C [17]: 44.4%; viability, T/C [22]: 48%; viability, T/C [23]: 39.1%; viability, T/C [27]: 54%; viability, T/C [28]: 45.2%; viability, T/C [29]: 38.4%; viability, T/C [30]: 55%; viability, T/C [31]: 56.3%; viability, T/C [32]: 55.3%; viability, T/C [33]: 47.2%; viability, T/C [34]: 45.4%; viability, T/C [35]: 39.8%
4 | Cn1ncnc1C1c2n[nH]c(=O)c3cc(F)cc(c23)NC1c1ccc(F)cc1 (centres undefined) + NC1CCC(NC2CC2c2ccccc2)CC1 | > 0.1 µM | 0.0814 µM | > 0.1 µM | 0.0284 µM | > 0.1 µM | 64.6% | 66.7% | 66.6% | 53.4% | 62.1% | 52.8% | 54.2% | 49.1% | 54.9% | 52.9% | 47.1% | 55.7% | 58.6% | 53% | 46.8% | viability, T/C (second compound 0.1 µM, first compound 0.000316 µM): 68.7%; viability, T/C (second compound 0.1 µM, first compound 0.001 µM): 69%; viability, T/C (second compound 0.316 µM, first compound 0.000316 µM): 66.6%; viability, T/C (second compound 0.316 µM, first compound 0.001 µM): 60.4%; viability, T/C (second compound 1 µM, first compound 0.000316 µM): 67.6%; viability, T/C (second compound 1 µM, first compound 0.001 µM): 60.3%; viability, T/C (second compound 3.16 µM, first compound 0.000316 µM): 57.7%; viability, T/C (second compound 3.16 µM, first compound 0.001 µM): 57.1%; viability, T/C [27]: 46.6%; viability, T/C (second compound 10 µM, first compound 0.000316 µM): 59%; viability, T/C (second compound 10 µM, first compound 0.001 µM): 60.4%; viability, T/C [30]: 60.8%; viability, T/C [31]: 57%; viability, T/C [32]: 50.4%; viability, T/C [33]: 54.3%
5 | COc1cc(Nc2ncc3c(n2)-c2ccc(Cl)cc2C(c2c(F)cccc2OC)=NC3)ccc1C(=O)O + NC1CCC(NC2CC2c2ccccc2)CC1 | < 0.00316 µM | < 0.00316 µM | < 0.00316 µM | < 0.00316 µM | < 0.00316 µM | 32.5% | 37.7% | 33.5% | 28.6% | 31.7% | 39.2% | 32.5% | 24.6% | 35.6% | 34.7% | 34.8% | 29.3% | 30.2% | 32.6% | 29.4% | viability, T/C [10]: 22.4%; viability, T/C [11]: 16.5%; viability, T/C [16]: 22.5%; viability, T/C [17]: 14.3%; viability, T/C [22]: 18.3%; viability, T/C [23]: 14.3%; viability, T/C [27]: 25.9%; viability, T/C [28]: 21.5%; viability, T/C [29]: 14.9%; viability, T/C [30]: 28.3%; viability, T/C [31]: 36.8%; viability, T/C [32]: 30.9%; viability, T/C [33]: 25.2%; viability, T/C [34]: 19.9%; viability, T/C [35]: 15.3%
6 | CC[C@@]1(O)C(=O)OCc2c1cc1n(c2=O)Cc2cc3c(CN(C)C)c(O)ccc3nc2-1 |  |  |  |  |  |  |  |  |  |  |  |  |  |  |  |  |  |  |  |  | viability, T/C (compound 0.000316 µM): 96.8% and 95.3%; viability, T/C (compound 0.001 µM): 79.3% and 94.1%; viability, T/C (compound 0.00316 µM): 54.4% and 57.1%; viability, T/C (compound 0.01 µM): 21.4% and 21.1%; viability, T/C (compound 0.0316 µM): 9.12% and 10.3%; viability, T/C (compound 0.1 µM): 4.35% and 3.55%; IC50 (curve of compound): 0.00345 µM and 0.00411 µM
7 | Nc1ncn(C2CC(O)C(CO)O2)c(=O)n1 (centres undefined) + NC1CCC(NC2CC2c2ccccc2)CC1 | 0.279 µM | 0.103 µM | 0.064 µM | 0.105 µM | 0.0405 µM | 63.8% | 70.5% | 62.2% | 49.6% | 67% | 69% | 61.5% | 49.8% | 59.7% | 58.6% | 52.8% | 45.2% | 54.8% | 53.9% | 55.1% | viability, T/C [10]: 50.2%; viability, T/C [11]: 44.2%; viability, T/C [16]: 46.6%; viability, T/C [17]: 42.6%; viability, T/C [22]: 47%; viability, T/C [23]: 42.7%; viability, T/C [27]: 52.3%; viability, T/C [28]: 41.3%; viability, T/C [29]: 35.6%; viability, T/C [30]: 53.1%; viability, T/C [31]: 57.4%; viability, T/C [32]: 49.3%; viability, T/C [33]: 45.8%; viability, T/C [34]: 36%; viability, T/C [35]: 35.4%
